The values below come from patent US20160296591A1, “COMPOSITIONS AND METHODS FOR TREATMENT OF BDNF-RELATED CONDITIONS” (TARIX PHARMACEUTICALS LTD., priority 2013, published 2016).

Holding throughout (format): cell-based, human
The test system of experiment [1] is BDNF. The experiment in a line: BDNF production in HUVEC, serum-free medium (BDNF Emax immunoassay). The settings on record: for lowest dose able to stimulate significant BDNF expression: serum-free medium, 24 hours stimulation, dose response 1×10^−14M to 1×10^−6M. On the procedure:
(§1) Prior to stimulation, cells were washed twice with sterile PBS and then provided with the respective serum free cell medium. Cells were incubated in the serum-free medium for one hour and afterwards stimulated for 24 hours. For the dose response measurement the peptides were used in a range from 1×10^−14M to 1×10^−6M. For all other experiments, a 1×10^−7M concentration of the peptides was used, whereas isoproterenol and forskolin were used in a 10^−6M concentration. To maintain the concentration of the substances over a period of 24 hours they were added again into the medium after 12 hours. After stimulation, the concentration of BDNF was determined in the cell medium. The samples were either used directly or stored at −80° C.
(§2) For the determination of the concentration of BDNF the BDNF Emax® immunoassay system from Promega was used. At first, 96-well plates were coated with anti-BDNF overnight at 4° C. The next day, the plates were washed with TBST and incubated with blocking buffer for one hour at room temperature. Afterwards, the plate was washed again with TBST, and 100 μl of sample were applied per well. The plate was incubated on a shaker (˜400 rpm) for two hours at room temperature and later on washed five times with TBST. To each well 100 μl pAb anti-human BDNF were added, and the plate again incubated under continuous shaking for two hours at room temperature. Thereafter, the plate was washed five times with TBST, each well applied with 100 μl anti-IgY-HRP conjugate, and incubated at room temperature with shaking for one hour. Then, the plate was washed five times with TBST and incubated for 10 min at room temperature on a shaker with TMB One Solution. The reaction was stopped with 1 M hydrochloric acid and the absorbance was measured immediately at 450 nm. The BDNF concentration was determined from a standard curve.

The subject of experiment [2] is BDNF. The experiment in a line: BDNF production in HDMEC, serum-free medium (BDNF Emax immunoassay). The settings on record: for lowest dose able to stimulate significant BDNF expression: serum-free medium, 24 hours stimulation, dose response 1×10^−14M to 1×10^−6M. The protocol: as §1, §2
The subject of experiment [3] is BDNF. Kind of experiment: BDNF production in HUVEC in complete (serum-containing) medium. The settings on record: peptide 1×10^−7M, 24 hours. On the procedure:
[…] […] For the dose response measurement the peptides were used in a range from 1×10^−14M to 1×10^−6M. For all other experiments, a 1×10^−7M concentration of the peptides was used, whereas isoproterenol and forskolin were used in a 10^−6M concentration. To maintain the concentration of the substances over a period of 24 hours they were added again into the medium after 12 hours. After stimulation, the concentration of BDNF was determined in the cell medium. The samples were either used directly or stored at −80° C.
as §2, with “Thereafter, the plate was washed five times with TBST, each well applied with 100 μl anti-IgY-HRP conjugate, and incubated at room temperature with shaking for one hour. Then, the plate was washed five times with TBST and incubated for 10 min at room temperature on a shaker with TMB One Solution.” left out, “curve. […]” for “curve.”

The test system of the next experiment is cAMP. Kind of experiment: cAMP production in HUVEC (cAMP enzyme immunoassay). The settings on record: 15 minutes of stimulation. The protocol:
Prior to stimulation with Ala^1-Arg^2-Val^3-Ser^4-Ile^5-His^6-Cys^7 (SEQ ID NO: 24), HUVEC cells were washed twice with PBS and then incubated for 1 hour in serum-free medium. In this Example, in order to generate a dose response curve, the peptide concentration ranged from 1×10^−13-1×10^−6 M. After 15 minutes of stimulation, the medium containing the peptide was removed and the cells were lysed (0.1M HCl, 0.1% Triton X-100). The clear lysate was collected, and 25 μl were used for determining the protein concentration (Pierce BCA Protein Assay Kit, Thermo Scientific, Rockford, USA) and the remaining fraction stored at −80° C. for later analysis.
cAMP concentration in cell lysates was determined using cAMP Enzyme Immunoassay Kit, Direct from Sigma-Aldrich (St. Louis, Mo., USA). Briefly, wells of 96-well plate (Goat Anti-Rabbit IgG pre-coated) were neutralized with 50 μl of Neutralizing Reagent. Next, 100 μl of acetylated cyclic AMP standard or cell lysate was added, followed by 50 μl of blue cAMP-Alkaline Phosphatase Conjugate and 50 μl of yellow EIA Rabbit Anti-cAMP antibody. The plate was then incubated on a shaker (˜500 rpm) for two hours at room temperature. […] The enzymatic reaction was stopped by adding 50 μl of Stop Solution, and the absorbance at 405 nm was measured immediately. The cAMP concentration was determined from non-linear standard curve using GraphPad Prism 5.0 software. […]

As to `CCC(C)C1NC(=O)C(NC(=O)C(NC(=O)C(CCCNC(=N)N)NC(=O)C(N)CC(=O)O)C(C)C)CSCC(C(=O)O)NC(=O)C(Cc2c[nH]cn2)NC1=O` (centres unmarked) [Pancyte], the “lowest dose able to stimulate significant BDNF expression” value with BDNF [1] and in the experiment with BDNF [2] was 10 pM each time. The “BDNF stimulation compared to control” value in the experiment with BDNF [3] is “still able to stimulate BDNF above control levels”.
As for “Ala^1-Arg^2-Val^3-Ser^4-Ile^5-His^6-Cys^7 (ARVSIHC) [SEQ ID NO:24]”, the “dose of the observed maximum of cAMP” value in the experiment with cAMP is reported as “approximately 1×10^−9 M”. In the experiment on cAMP (dose response 1×10^−13-1×10^−6 M), the “lowest dose giving a significant increase in cAMP” value was determined as 10 pM.
Regarding “Asp^1-Arg^2-Val^3-Tyr^4-Ile^5-His^6-Pro^7 (DRVYIHP) [Ang (1-7), naturally-occurring Angiotensin (1-7), seven amino acid peptide]”, the “lowest dose able to stimulate significant BDNF expression” value in the experiment with BDNF [1] and in the experiment with BDNF [2] was 10000 pM each time.
As to “TXA301: angiotensin (1-7) peptide tested; not defined in the text, possibly linear SEQ ID NO: 6 (DRVSIHC)”, in the experiment on BDNF [1], the “BDNF expression at doses 100,000 times higher than 1×10^−11 compared with 1×10^−11 M” value is recorded as “statistically similar levels of expression” and the “lowest dose able to stimulate significant BDNF expression” value was found to be 10 pM. Besides, in the experiment on BDNF [2], the “BDNF expression at doses 100,000 times higher than 1×10^−11 compared with 1×10^−11 M” value was “statistically similar levels of expression” and the “lowest dose able to stimulate significant BDNF expression” value turned out to be 10 pM.
